Data reported in patent US11691962B2 (eXIthera Pharmaceuticals, Inc., priority 2018, dated 2023).
pIC50: −log10 of the molar value.

The molecules below were run against Factor XIa (Homo sapiens (Human), UniProt P03951) (assay: Factor XIa enzyme inhibition assay (dose response, fluorogenic AMC substrate)). Settings: read-out: hFXIa IC50.
Sequence of Factor XIa (P03951 388-625): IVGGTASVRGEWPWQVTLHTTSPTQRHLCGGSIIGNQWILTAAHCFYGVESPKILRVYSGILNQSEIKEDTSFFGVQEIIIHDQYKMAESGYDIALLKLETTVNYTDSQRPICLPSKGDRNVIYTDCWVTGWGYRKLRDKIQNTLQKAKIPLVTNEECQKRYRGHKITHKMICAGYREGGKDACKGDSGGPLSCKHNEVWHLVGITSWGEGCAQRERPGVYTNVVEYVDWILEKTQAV
Sequence of Factor XIa (P03951 19-387 partner): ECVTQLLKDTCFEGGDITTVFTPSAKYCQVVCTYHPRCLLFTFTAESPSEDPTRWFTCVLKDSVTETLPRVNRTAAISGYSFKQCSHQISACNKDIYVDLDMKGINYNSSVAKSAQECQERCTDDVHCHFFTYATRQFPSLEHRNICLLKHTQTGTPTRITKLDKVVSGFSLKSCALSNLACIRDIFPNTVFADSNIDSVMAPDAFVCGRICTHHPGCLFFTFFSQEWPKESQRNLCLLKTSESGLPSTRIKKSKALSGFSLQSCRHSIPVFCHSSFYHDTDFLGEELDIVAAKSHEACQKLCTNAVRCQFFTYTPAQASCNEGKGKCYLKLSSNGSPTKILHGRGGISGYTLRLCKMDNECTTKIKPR
Format: biochemical
Description: • Assay buffer: 20 mM Hepes, pH 7.4; 150 mM NaCl; 0.02% Tween 20 • Compounds: 10 mM stocks in DMSO • Substrate: 20 mM Glp-Pro-Arg-AMC, 25 mg/2.3 mL H2O (store at +4° C.) [Factor XIa, thrombin, and trypsin] • 20 mM Pro-Phe-Arg-AMC (Bachem I-1295), 25 mg/2.2 mL H2O • or Boc-Leu-Gly-Arg-AMC (Bachem I-1105), 25 mg/2.07 mL H2O • (store at +4° C.) [Factor Xa] • Enzyme: Factor XIa; 0.25 μM in 50% glycerol (20 μg/mL) • Trypsin; 0.2 μM in 50% glycerol (4.8 μg/mL) • Thrombin; 0.2 μM in 50% glycerol (7.34 μg/mL) • Factor Xa; 0.2 μM in 50% glycerol (9.2 μg/mL) • These stocks are aliquoted (˜100 μL/aliquot) and stored at −20° C. Methods: • 1. Dilute the substrate to 100 μM in assay buffer (30 μL/6 mL). The enzyme is diluted to 0.5 nM just prior to use (12 μL/6 mL for Factor XIa; 15 μL/6 mL for all of the rest.) • 2. Pipette 50 μL of substrate into each well of the 96 well (12×8) microtiter plate. (Column 1 is used as the 100% activity control and receives no compound, and Column 12 is the blank and receives no enzyme.) Add an additional 46 μL to column 2. • 3. Pipette 4 μL of each compound into the appropriate well in column 2 of the plate (unknowns assayed in triplicate, standard assayed in duplicate). The final compound concentration will be […] of the stock. • 4. Serially two-fold dilute the compound by mixing the sample in column 2, removing 50 μL to the next well (column 3), mix and remove to column 4, etc. until column 11. After mixing column 11, remove 50 μL and discard. • 5. Pipette 50 μL of buffer into column 12. Initiate the reaction by adding 50 μL of enzyme solution to each well of columns 1-11 as rapidly as possible. • 6. Read the plate in a spectrophotometer (SpectraMax) at 30° C., wherein each well is measured every 60 s for 30 min. For Factor Xa assays, each well is measured every 1 min for a total of 60 min. • 7. For Factor XIa assays, the compounds are assayed, in duplicate, at 3 different starting concentrations, 20, 2, and 0.2 μM; 1:10, 1:100, and 1:1000 dilution of 10 mM stock or at 2, 0.2, and 0.02 μM; 1:100, 1:1000, and 1:10,000 dilution of 10 mM stock. Data for each concentration are combined for graphing and data fitting. • 8. Data can be used both for estimation of IC50 and for estimation of Kon.
Potential inhibitors of Factor XIa were evaluated using the following assay.
PyroGlu-Pro-Arg-7-methylaminocourin (AMC), available from CPC Scientific, Inc., is based on the substrate pyro-Glu-Pro-Arg-pNA (S-2366), available from Diapharma Group, Inc. (Columbus, Ohio), wherein the p-nitroanaline group is replaced with 7-methylaminocoumarin (AMC).
The final concentration of the substrate in the assay was 50 μM, and the final concentration of the enzyme was 0.25 nM. Inhibitors were tested by serial dilution over an appropriate range to yield a dose response curve for determination of the inhibitors' IC50 value. The assay mixture was read every minute for 30 minutes in order to generate progress curves. The plates were read in a Spectramax m5 Multimode Plate Reader (Molecular Devices LLC, Sunnyvale, Calif.). Dose response curves were fit to Equation 1 below in which A is the maximum inhibition, B is the minimum inhibition, C is the IC50, and D is the Hill coefficient. Y=[(A−B)/(1+(X/C)^D)]+B (Equation 1)
`CC[C@@H](NC(=O)N1C(=O)[C@H](Cc2ccnc(N)c2)[C@H]1C(=O)N(C)c1nccn1C)c1ccc(Cl)cc1C` [Compound 1-118, (2S,3R)-3-((2-aminopyridin-4-yl)methyl)-N2-(1-methyl-1H-imidazol-2-yl)-N1-((R)-1-(4-chloro-2-methylphenyl)propyl)-N2-methyl-4-oxoazetidine-1,2-dicarboxamide] gave a pIC50 greater than 8.00.
Molecule `CC[C@@H](NC(=O)N1C(=O)[C@H](Cc2ccnc(N)c2)[C@H]1C(=O)N(C)c1nccn1C)c1ccc(C)cc1F` [Compound 1-119, (2S,3R)-3-((2-aminopyridin-4-yl)methyl)-N2-(1-methyl-1H-imidazol-2-yl)-N1-((R)-1-(2-fluoro-4-methylphenyl)propyl)-N2-methyl-4-oxoazetidine-1,2-dicarboxamide] has a pIC50 greater than 8.00.
`CC[C@@H](NC(=O)N1C(=O)[C@H](Cc2ccnc(N)c2)[C@H]1C(=O)N(C)c1nccn1C)C1CCCCO1` (stereo partly drawn) [Compound 1-121, (2S,3R)-3-((2-aminopyridin-4-yl)methyl)-N2-(1-methyl-1H-imidazol-2-yl)-N1-((R)-1-(oxan-2-yl)propyl)-N2-methyl-4-oxoazetidine-1,2-dicarboxamide] gave a pIC50 of 7.00 to 8.00.
`CC[C@@H](NC(=O)N1C(=O)[C@H](Cc2ccnc(N)c2)[C@H]1C(=O)N(C)c1nccn1C)C1CCOCC1` [Compound 1-122, (2S,3R)-3-((2-aminopyridin-4-yl)methyl)-N2-(1-methyl-1H-imidazol-2-yl)-N1-((R)-1-(oxan-4-yl)propyl)-N2-methyl-4-oxoazetidine-1,2-dicarboxamide] showed a pIC50 of 7.00 to 8.00.
`CC[C@@H](NC(=O)N1C(=O)[C@H](Cc2ccnc(N)c2)[C@H]1C(=O)N(C)c1ccn(C)n1)c1ccc(C)cc1` [Compound 1-124, (2S,3R)-3-((2-aminopyridin-4-yl)methyl)-N2-(1-methyl-1H-pyrazol-3-yl)-N1-((R)-1-(4-methylphenyl)propyl)-N2-methyl-4-oxoazetidine-1,2-dicarboxamide] showed a pIC50 greater than 8.00.
`CC[C@@H](NC(=O)N1C(=O)[C@H](Cc2ccnc(N)c2)[C@H]1C(=O)N(C)c1nccn1C)C1CCCOC1` (stereo partly drawn) [Compound 1-126, (2S,3R)-3-((2-aminopyridin-4-yl)methyl)-N2-(1-methyl-1H-imidazol-2-yl)-N1-((R)-1-(oxan-3-yl)propyl)-N2-methyl-4-oxoazetidine-1,2-dicarboxamide] was tested, and the pIC50 was 7.00 to 8.00.
Molecule `CC[C@@H](NC(=O)N1C(=O)[C@H](Cc2ccnc(N)c2)[C@H]1C(=O)N(C)c1ccn(C)n1)c1ccccc1C` [Compound 1-130, (2S,3R)-3-((2-aminopyridin-4-yl)methyl)-N2-(1-methyl-1H-pyrazol-3-yl)-N1-((R)-1-(2-methylphenyl)propyl)-N2-methyl-4-oxoazetidine-1,2-dicarboxamide] has a pIC50 greater than 8.00.
With `CC[C@@H](NC(=O)N1C(=O)[C@H](Cc2ccnc(N)c2)[C@H]1C(=O)N(C)C1=NC(=O)CN1C)c1ccccc1` [Compound 1-131, (2S,3R)-3-((2-aminopyridin-4-yl)methyl)-N2-(4-oxo-1-methyl-4,5-dihydro-1H-imidazol-2-yl)-N1-((R)-1-phenylpropyl)-N2-methyl-4-oxoazetidine-1,2-dicarboxamide] the pIC50 was 7.00 to 8.00.
For `CC[C@@H](NC(=O)N1C(=O)[C@H](Cc2ccnc(N)c2)[C@H]1C(=O)N(C)c1ccn(C)n1)c1cc(C)ccc1C` [Compound 1-132, (2S,3R)-3-((2-aminopyridin-4-yl)methyl)-N2-(1-methyl-1H-pyrazol-3-yl)-N1-((R)-1-(2,5-dimethylphenyl)propyl)-N2-methyl-4-oxoazetidine-1,2-dicarboxamide], the pIC50 was greater than 8.00.
`CC[C@@H](NC(=O)N1C(=O)[C@H](Cc2ccnc(N)c2)[C@H]1C(=O)N(C)c1ccn(C)n1)c1ccccc1F` [Compound 1-133, (2S,3R)-3-((2-aminopyridin-4-yl)methyl)-N2-(1-methyl-1H-pyrazol-3-yl)-N1-((R)-1-(2-fluorophenyl)propyl)-N2-methyl-4-oxoazetidine-1,2-dicarboxamide] gave a pIC50 of 7.00 to 8.00.
Work on `CC[C@@H](NC(=O)N1C(=O)[C@H](Cc2ccnc(N)c2)[C@H]1C(=O)N(C)c1ccn(C)n1)c1cc(F)ccc1C` [Compound 1-135, (2S,3R)-3-((2-aminopyridin-4-yl)methyl)-N2-(1-methyl-1H-pyrazol-3-yl)-N1-((R)-1-(5-fluoro-2-methylphenyl)propyl)-N2-methyl-4-oxoazetidine-1,2-dicarboxamide] yielded a pIC50 greater than 8.00.
`CC[C@@H](NC(=O)N1C(=O)[C@H](Cc2ccnc(N)c2)[C@H]1C(=O)N(C)c1ccn(C)n1)c1cccc(Cl)c1C` [Compound 1-138, (2S,3R)-3-((2-aminopyridin-4-yl)methyl)-N2-(1-methyl-1H-pyrazol-3-yl)-N1-((R)-1-(3-chloro-2-methylphenyl)propyl)-N2-methyl-4-oxoazetidine-1,2-dicarboxamide] showed a pIC50 greater than 8.00.
`CC[C@@H](NC(=O)N1C(=O)[C@H](Cc2cc(C)nc(N)c2)[C@H]1C(=O)N(C)C1=NC(=O)CN1C)c1ccccc1` [Compound 1-139, (2S,3R)-3-((2-amino-6-methylpyridin-4-yl)methyl)-N2-(4-oxo-1-methyl-4,5-dihydro-1H-imidazol-2-yl)-N1-((R)-1-phenylpropyl)-N2-methyl-4-oxoazetidine-1,2-dicarboxamide] was tested, and the pIC50 was 7.00 to 8.00.
`CC[C@@H](NC(=O)N1C(=O)[C@H](Cc2ccnc(N)c2)[C@H]1C(=O)N(C)c1ccn(C)n1)c1cccc(C)c1C` [Compound 1-140, (2S,3R)-3-((2-aminopyridin-4-yl)methyl)-N2-(1-methyl-1H-pyrazol-3-yl)-N1-((R)-1-(2,3-dimethylphenyl)propyl)-N2-methyl-4-oxoazetidine-1,2-dicarboxamide] was tested, and the pIC50 was greater than 8.00.
For `CC[C@@H](NC(=O)N1C(=O)[C@H](Cc2ccnc(N)c2)[C@H]1C(=O)N(C)c1ccn(C)n1)c1cc(Cl)ccc1C` [Compound 1-141, (2S,3R)-3-((2-aminopyridin-4-yl)methyl)-N2-(1-methyl-1H-pyrazol-3-yl)-N1-((R)-1-(5-chloro-2-methylphenyl)propyl)-N2-methyl-4-oxoazetidine-1,2-dicarboxamide], the pIC50 was greater than 8.00.
`CC[C@@H](NC(=O)N1C(=O)[C@H](Cc2cc(C)nc(N)c2)[C@H]1C(=O)N(C)c1ccn(C)n1)c1ccc(C)cc1` [Compound 1-142, (2S,3R)-3-((2-amino-6-methylpyridin-4-yl)methyl)-N2-(1-methyl-1H-pyrazol-3-yl)-N1-((R)-1-(4-methylphenyl)propyl)-N2-methyl-4-oxoazetidine-1,2-dicarboxamide] gave a pIC50 greater than 8.00.
`CC[C@@H](NC(=O)N1C(=O)[C@H](Cc2cc(C)nc(N)c2)[C@H]1C(=O)N(C)c1ccn(C)n1)c1ccc(C)c(C)c1` [Compound 1-145, (2S,3R)-3-((2-amino-6-methylpyridin-4-yl)methyl)-N2-(1-methyl-1H-pyrazol-3-yl)-N1-((R)-1-(3,4-dimethylphenyl)propyl)-N2-methyl-4-oxoazetidine-1,2-dicarboxamide] gave a pIC50 greater than 8.00.
`CC[C@@H](NC(=O)N1C(=O)[C@H](Cc2cc(C)nc(N)c2)[C@H]1C(=O)N(C)c1ccn(C)n1)c1ccc(C)c(Cl)c1` [Compound 1-147, (2S,3R)-3-((2-amino-6-methylpyridin-4-yl)methyl)-N2-(1-methyl-1H-pyrazol-3-yl)-N1-((R)-1-(3-chloro-4-methylphenyl)propyl)-N2-methyl-4-oxoazetidine-1,2-dicarboxamide] was tested, and the pIC50 was greater than 8.00.
